Here are results for 24 compounds from US20170107229A1, “SUBSTITUTED TETRAHYDROPYRIDOTHIENOPYRIMIDINES” (BAYER PHARMA AKTIENGESELLSCHAFT, priority 2014, published 2017).

The assay deals with T1, human full-length MKNK1 (Homo sapiens, UniProt Q9BUB5, T385D).
T1 construct: GST (N); purchased Carna Biosciences 02-145; host or cells: insect cells (baculovirus expression system)
T1 sequence (Q9BUB5 1-424 isoform Q9BUB5-2 T344D): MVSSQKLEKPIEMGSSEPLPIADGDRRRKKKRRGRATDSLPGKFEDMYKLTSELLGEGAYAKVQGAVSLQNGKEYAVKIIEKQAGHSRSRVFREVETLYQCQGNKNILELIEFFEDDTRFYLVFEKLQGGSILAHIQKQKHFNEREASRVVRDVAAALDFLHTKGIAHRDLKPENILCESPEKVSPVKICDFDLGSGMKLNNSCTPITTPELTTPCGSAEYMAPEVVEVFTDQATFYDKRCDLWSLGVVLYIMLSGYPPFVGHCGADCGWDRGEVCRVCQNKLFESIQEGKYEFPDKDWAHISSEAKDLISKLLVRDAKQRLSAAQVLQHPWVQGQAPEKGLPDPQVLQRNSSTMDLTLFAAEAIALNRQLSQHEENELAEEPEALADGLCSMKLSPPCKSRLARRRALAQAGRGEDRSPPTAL
The assay can be described thus: MKNK1 kinase high ATP assay (TR-FRET). The conditions noted are these: high ATP (2 mM final), 15 min preincubation with enzyme, GST-MKNK1 (T344D). Format: biochemical. The protocol: MKNK1-inhibitory activity at high ATP of compounds of the present invention after their preincubation with MKNK1 was quantified employing the TR-FRET-based MKNK1 high ATP assay as described in the following paragraphs.
A recombinant fusion protein of Glutathione-S-Transferase (GST, N-terminally) and human full-length MKNK1 (amino acids 1-424 and T344D of accession number BAA 19885.1), expressed in insect cells using baculovirus expression system and purified via glutathione sepharose affinity chromatography, was purchased from Carna Biosciences (product no 02-145) and used as enzyme. As substrate for the kinase reaction the biotinylated peptide biotin-Ahx-IKKRKLTRRKSLKG (C-terminus in amide form) was used, which can be purchased e.g. from the company Biosyntan (Berlin-Buch, Germany).
For the assay 50 nL of a 100fold concentrated solution of the test compound in DMSO was pipetted into a black low volume 384well microtiter plate (Greiner Bio-One, Frickenhausen, Germany), 2 μL of a solution of MKNK1 in aqueous assay buffer [50 mM HEPES pH 7.5, 5 mM MgCl2, 1.0 mM dithiothreitol, 0.005% (v/v) Nonidet-P40 (Sigma)] was added and the mixture was incubated for 15 min at 22° C. to allow pre-binding of the test compounds to the enzyme before the start of the kinase reaction. Then the kinase reaction was started by the addition of 3 μL of a solution of adenosine-tri-phosphate (ATP, 3.3 mM=>final conc. in the 5 μL assay volume is 2 mM) and substrate (0.1 μM=>final conc. in the 5 μL assay volume is 0.06 μM) in assay buffer and the resulting mixture was incubated for a reaction time of 30 min at 22° C. The concentration of MKNK1 was adjusted depending of the activity of the enzyme lot and was chosen appropriate to have the assay in the linear range, typical concentrations were in the range of 0.003 μg/mL. The reaction was stopped by the addition of 5 μL of a solution of TR-FRET detection reagents (5 nM streptavidine-XL665 [Cisbio Bioassays, Codolet, France] and 1 nM anti-ribosomal protein S6 (pSer236)-antibody from Invitrogen [#44921G] and 1 nM LANCE EU-W1024 labeled ProteinG [Perkin-Elmer, product no. AD0071]) in an aqueous EDTA-solution (100 mM EDTA, 0.1% (w/v) bovine serum albumin in 50 mM HEPES pH 7.5).
The resulting mixture was incubated for 1 h at 22° C. to allow the formation of complex between the phosphorylated biotinylated peptide and the detection reagents. Subsequently the amount of phosphorylated substrate was evaluated by measurement of the resonance energy transfer from the Eu-chelate to the streptavidine-XL. Therefore, the fluorescence emissions at 620 nm and 665 nm after excitation at 350 nm were measured in a TR-FRET reader, e.g. a Rubystar (BMG Labtechnologies, Offenburg, Germany) or a Viewlux (Perkin-Elmer). The ratio of the emissions at 665 nm and at […] was taken as the measure for the amount of phosphorylated substrate. The data were normalised (enzyme reaction without inhibitor=0% inhibition, all other assay components but no enzyme=100% inhibition).
The compound `CN1CCC(C(=O)N2CCc3c(sc4ncnc(Nc5ccc6[nH]c(=O)sc6c5)c34)C2)CC1` [Example 66, 6-({7-[(1-Methylpiperidin-4-yl)carbonyl]-5,6,7,8-tetrahydropyrido[4′,3′:4,5]thieno[2,3-d]pyrimidin-4-yl}amino)-1,3-benzothiazol-2(3H)-one] gave an IC50 of 90 nM. Consider `COc1cc2[nH]ncc2cc1Nc1ncnc2sc3c(c12)CCN(C(=O)c1cccn1C)C3` [Example 73, {4-[(6-Methoxy-1H-indazol-5-yl)amino]-5,8-dihydropyrido[4′,3′:4,5]thieno[2,3-d]pyrimidin-7(6H)-yl}(1-methyl-1H-pyrrol-2-yl)methanone], for which the IC50 is 7 nM. In turn, `CN(C)C(=O)N1CCc2c(sc3ncnc(Nc4ccn5nccc5c4)c23)C1` [Example 30, N,N-Dimethyl-4-(pyrazolo[1,5-a]pyridin-5-ylamino)-5,8-dihydropyrido[4′,3′:4,5]thieno[2,3-d]pyrimidine-7(6H)-carboxamide] displayed an IC50 of 484 nM.

Turning to `COc1cc2[nH]ncc2cc1Nc1ncnc2sc3c(c12)CCN(C(=O)CC(F)(F)F)C3` [Example 54, 3,3,3-Trifluoro-1-{4-[(6-methoxy-1H-indazol-5-yl)amino]-5,8-dihydropyrido[4′,3′:4,5]thieno[2,3-d]pyrimidin-7(6H)-yl}propan-1-one], the IC50 turned out to be 6 nM.

`COc1cc2[nH]ncc2cc1Nc1ncnc2sc3c(c12)CCN(CCN1CCCC1=O)C3` [Example 85, 1-(2-{4-[(6-Methoxy-1H-indazol-5-yl)amino]-5,8-dihydropyrido[4′,3′:4,5]thieno[2,3-d]pyrimidin-7(6H)-yl}ethyl)pyrrolidin-2-one]: the IC50 stood at 10 nM.

`COc1cc2[nH]ncc2cc1Nc1ncnc2sc3c(c12)CCN(CCCN1CCNC1=O)C3` [Example 83, 1-(3-{4-[(6-Methoxy-1H-indazol-5-yl)amino]-5,8-dihydropyrido[4′,3′:4,5]thieno[2,3-d]pyrimidin-7(6H)-yl}propyl)imidazolidin-2-one] yielded a half-inhibitory concentration (IC50) of 15 nM.

In the case of `COc1cc2[nH]ncc2cc1Nc1ncnc2sc3c(c12)CCN(CCCN1CCOCC1)C3` [Example 90, N-(6-Methoxy-1H-indazol-5-yl)-7-[3-(morpholin-4-yl)propyl]-5,6,7,8-tetrahydropyrido[4′,3′:4,5]thieno[2,3-d]pyrimidin-4-amine], the 50% inhibitory concentration (IC50) stood at 4 nM. Then `COc1cc2[nH]ncc2cc1Nc1ncnc2sc3c(c12)CCN(C(=O)N1[C@H](C)COC[C@H]1C)C3` [Example 93, [(3R,5R)-3,5-Dimethylmorpholin-4-yl]{4-[(6-methoxy-1H-indazol-5-yl)amino]-5,8-dihydropyrido[4′,3′:4,5]thieno[2,3-d]pyrimidin-7(6H)-yl}methanone], with 4 nM; and `c1nc(Nc2cc3cn[nH]c3cn2)c2c3c(sc2n1)CN(CCN1CCOCC1)CC3` [Example 60, 7-[2-(Morpholin-4-yl)ethyl]-N-(1H-pyrazolo[3,4-c]pyridin-5-yl)-5,6,7,8-tetrahydropyrido[4′,3′:4,5]thieno[2,3-d]pyrimidin-4-amine], with 98 nM; and `COc1cc2[nH]ncc2cc1Nc1ncnc2sc3c(c12)CCN(C(=O)N1CCOC[C@H]1C)C3` [Example 96, {4-[(6-Methoxy-1H-indazol-5-yl)amino]-5,8-dihydropyrido[4′,3′:4,5]thieno[2,3-d]pyrimidin-7(6H)-yl}[(3R)-3-methylmorpholin-4-yl]methanone], with 3 nM. In turn, `COc1cc2[nH]ncc2cc1Nc1ncnc2sc3c(c12)CCN(C(=O)N1CCCCC1)C3` [Example 70, {4-[(6-Methoxy-1H-indazol-5-yl)amino]-5,8-dihydropyrido[4′,3′:4,5]thieno[2,3-d]pyrimidin-7(6H)-yl}(piperidin-1-yl)methanone] registered an IC50 of 19 nM. Regarding `COc1cc2[nH]ncc2cc1Nc1ncnc2sc3c(c12)CCN(Cc1ccn(C)n1)C3` [Example 98, N-(6-Methoxy-1H-indazol-5-yl)-7-[(1-methyl-1H-pyrazol-3-yl)methyl]-5,6,7,8-tetrahydropyrido[4′,3′:4,5]thieno[2,3-d]pyrimidin-4-amine], the half-inhibitory concentration (IC50) turned out to be 11 nM.

Take `COc1cc2[nH]ncc2cc1Nc1ncnc2sc3c(c12)CCN(C(=O)N(C)C)C3` [Example 16, 4-[(6-Methoxy-1H-indazol-5-yl)amino]-N,N-dimethyl-5,8-dihydropyrido[4′,3′:4,5]thieno[2,3-d]pyrimidine-7(6H)-carboxamide]: the IC50 was determined as 4 nM. `COc1cc2[nH]ncc2cc1Nc1ncnc2sc3c(c12)CCN(CCCN1C[C@@H](C)O[C@@H](C)C1)C3` [Example 89, 7-{3-[(2R,6S)-2,6-Dimethylmorpholin-4-yl]propyl}-N-(6-methoxy-1H-indazol-5-yl)-5,6,7,8-tetrahydropyrido[4′,3′:4,5]thieno[2,3-d]pyrimidin-4-amine] gave an IC50 of 3 nM.

As for `CN1CCC(C(=O)N2CCc3c(sc4ncnc(Nc5cnc6[nH]ncc6c5)c34)C2)CC1` [Example 67, (1-Methylpiperidin-4-yl)[4-(1H-pyrazolo[3,4-b]pyridin-5-ylamino)-5,8-dihydropyrido[4′,3′:4,5]thieno[2,3-d]pyrimidin-7(6H)-yl]methanone], the IC50 was found to be 53 nM. As for `CC(C)C(=O)N1CCc2c(sc3ncnc(Nc4ccc5[nH]ncc5c4)c23)C1` [Example 19, 1-[4-(1H-indazol-5-ylamino)-5,8-dihydropyrido[4′,3′:4,5]thieno[2,3-d]pyrimidin-7(6H)-yl]-2-methylpropan-1-one], the 50% inhibitory concentration (IC50) was 15 nM. In turn, `CCOCCN(C)C(=O)N1CCc2c(sc3ncnc(Nc4cc5cn[nH]c5cc4OC)c23)C1` [Example 78, N-(2-Ethoxyethyl)-4-[(6-methoxy-1H-indazol-5-yl)amino]-N-methyl-5,8-dihydropyrido[4′,3′:4,5]thieno[2,3-d]pyrimidine-7(6H)-carboxamide] came in with a 50% inhibitory concentration (IC50) of 1020 nM. `CS(=O)(=O)N1CCc2c(sc3ncnc(Nc4ccc5[nH]c(=O)sc5c4)c23)C1` [Example 39, 6-{[7-(Methylsulfonyl)-5,6,7,8-tetrahydropyrido[4′,3′:4,5]thieno[2,3-d]pyrimidin-4-yl]amino}-1,3-benzothiazol-2(3H)-one] registered an IC50 of 316 nM.

`COc1cc2[nH]ncc2cc1Nc1ncnc2sc3c(c12)CCN(CCCN1CCCC1=O)C3` [Example 86, 1-(3-{4-[(6-Methoxy-1H-indazol-5-yl)amino]-5,8-dihydropyrido[4′,3′:4,5]thieno[2,3-d]pyrimidin-7(6H)-yl}propyl)pyrrolidin-2-one] came in with an IC50 of 12 nM. With `FC(F)(F)CN1CCc2c(sc3ncnc(Nc4cnc5[nH]ncc5c4)c23)C1` [Example 10, N-(1H-Pyrazolo[3,4-b]pyridin-5-yl)-7-(2,2,2-trifluoroethyl)-5,6,7,8-tetrahydropyrido[4′,3′:4,5]thieno[2,3-d]pyrimidin-4-amine], the IC50 was determined as 79 nM. Compound `COc1cc2[nH]ncc2cc1Nc1ncnc2sc3c(c12)CCN(C(=O)N1[C@@H](C)COC[C@@H]1C)C3` [Example 101, [(3S,5S)-3,5-Dimethylmorpholin-4-yl]{4-[(6-methoxy-1H-indazol-5-yl)amino]-5,8-dihydropyrido[4′,3′:4,5]thieno[2,3-d]pyrimidin-7(6H)-yl}methanone] came in with an IC50 of 9 nM. The compound `CN(C)C(=O)N1CCc2c(sc3ncnc(Nc4cc5cn[nH]c5cn4)c23)C1` [Example 14, N,N-Dimethyl-4-(1H-pyrazolo[3,4-c]pyridin-5-ylamino)-5,8-dihydropyrido[4′,3′:4,5]thieno[2,3-d]pyrimidine-7(6H)-carboxamide] displayed an IC50 of 30 nM. `COc1cc2[nH]ncc2cc1Nc1ncnc2sc3c(c12)CCN(C(=O)C(C)C)C3` [Example 22, 1-{4-[(6-Methoxy-1H-indazol-5-yl)amino]-5,8-dihydropyrido[4′,3′:4,5]thieno[2,3-d]pyrimidin-7(6H)-yl}-2-methylpropan-1-one] returned an IC50 of 4 nM. In turn, `CC(C)(C)OC(=O)N1CCc2c(sc3ncnc(Nc4ccc5[nH]ncc5c4)c23)C1` [Example 5, tert-Butyl 4-(1H-indazol-5-ylamino)-5,8-dihydropyrido[4′,3′:4,5]thieno[2,3-d]pyrimidine-7(6H)-carboxylate] displayed an IC50 of 18 nM.
